# Reference: patent US20260285850A1, “SUBSTITUTED OXAZOLIDINONES AND IMIDAZOLINONES AS HERBICIDES” (FMC CORPORATION, priority 2023, published 2026)
# Columns and labels:
# Assay type in all cases: in vivo
# [1] = tested on: green foxtail (Setaria viridis); experiment: Test A preemergence soil spray, visual injury rating 0-100; conditions: 10 days
# Procedure, shortened: (§1)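 Scale 0–100 (no effect to complete control), visual, versus untreated controls, read 10 days after application. Application: preemergence directed spray onto seeded loam–sand soil, or postemergence to young plants; formulation in non-phytotoxic solvent with surfactant.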
# [2] = tested on: oat, wild (wild oat, Avena fatua); experiment: as above; conditions: 10 days
# Procedure, shortened: as §1
# [3] = tested on: ryegrass, Italian (italian ryegrass, Lolium multiflorum); experiment: as above; conditions: 10 days
# Procedure, shortened: as §1
# kochia (Bassia scoparia) [4] = experiment: as above; conditions: 10 days
# Procedure, shortened: as §1
# corn (Zea mays) [5] = experiment: as above; conditions: 10 days
# Procedure, shortened: as §1
# [6] = tested on: blackgrass (Alopecurus myosuroides); experiment: as above; conditions: 10 days
# Procedure, shortened: as §1
# [7] = tested on: barnyardgrass (Echinochloa crus-galli); experiment: as above; conditions: 10 days
# Procedure, shortened: as §1
# [8] = tested on: wheat (Triticum aestivum); experiment: as above; conditions: 10 days
# Procedure, shortened: as §1
# soybean (Glycine max) [9] = experiment: as above; conditions: 10 days
# Procedure, shortened: as §1
# [10] = tested on: ragweed (common ragweed, Ambrosia artemisiifolia); experiment: as above; conditions: 10 days
# Procedure, shortened: as §1
# [11] = tested on: palmer (palmer amaranth, palmer pigweed, Amaranthus palmeri); experiment: as above; conditions: 10 days
# Procedure, shortened: as §1
# [12] = tested on: green foxtail (Setaria viridis); experiment: Test A postemergence application, visual injury rating 0-100
# Procedure, shortened: as §1
# [13] = tested on: oat, wild (wild oat, Avena fatua); experiment: as above
# Procedure, shortened: as §1
# [14] = tested on: ryegrass, Italian (italian ryegrass, Lolium multiflorum); experiment: as above
# Procedure, shortened: as §1
# kochia (Bassia scoparia) [15] = experiment: as above
# Procedure, shortened: as §1
# corn (Zea mays) [16] = experiment: as above
# Procedure, shortened: as §1
# [17] = tested on: horseweed (Erigeron canadensis); experiment: as above
# Procedure, shortened: as §1
# [18] = tested on: blackgrass (Alopecurus myosuroides); experiment: as above
# Procedure, shortened: as §1
# [19] = tested on: barnyardgrass (Echinochloa crus-galli); experiment: as above
# Procedure, shortened: as §1
# [20] = tested on: wheat (Triticum aestivum); experiment: as above
# Procedure, shortened: as §1
# soybean (Glycine max) [21] = experiment: as above
# Procedure, shortened: as §1
# [22] = tested on: ragweed (common ragweed, Ambrosia artemisiifolia); experiment: as above
# Procedure, shortened: as §1
# [23] = tested on: galium (catchweed bedstraw, Galium aparine); experiment: as above
# Procedure, shortened: as §1
# [24] = tested on: palmer (palmer amaranth, palmer pigweed, Amaranthus palmeri); experiment: as above
# Procedure, shortened: as §1
# [25] = tested on: sedge, umbrella (small-flower umbrella sedge, Cyperus difformis); experiment: Test B flooded paddy test, visual plant response rating 0-100; conditions: 250 g ai/ha, Flood, applied to paddy water, evaluated after 13 days
# Procedure, shortened: (§2)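 Paddy-water application: test compounds went directly into water flooded 3 cm above the soil surface, with plants at 2 leaves. After a 13-day greenhouse period, responses were judged by eye relative to controls; a dash marks an untested entry.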
# [26] = tested on: barnyardgrass (Echinochloa crusgalli); experiment: as above; conditions: 250 g ai/ha, Flood, applied to paddy water, evaluated after 13 days
# Procedure, shortened: as §2
# [27] = tested on: ducksalad (Heteranthera limosa); experiment: as above; conditions: 250 g ai/ha, Flood, applied to paddy water, evaluated after 13 days
# Procedure, shortened: as §2
# rice (Oryza sativa) = experiment: as above; conditions: 250 g ai/ha, Flood, applied to paddy water, evaluated after 13 days
# Procedure, shortened: as §2
# [28] = 62 g ai/ha, 0 = no effect, 100 = complete control
# [29] = 62 g ai/ha, postemergence, 10 days, 0 = no effect, 100 = complete control
# [30] = Postemergence, 16 g ai/ha, greenhouse 10 days, 0 no effect, 100 complete control
smiles,measurement,setting,value
C=CC1(C(=O)NC2CC(C(=O)OC)C2)CN(c2cc(F)cc(F)c2)C(=O)O1 (stereo not shown) [Compound 172],"Foxtail, Green plant response rating","[1]; 16 g ai/ha, 0 to 100 scale",40
same,"Foxtail, Green plant response rating (0-100)",[1]; [28],100
same,"Oat, Wild plant response rating","[2]; 16 g ai/ha, 0 to 100 scale",30
same,"Oat, Wild plant response rating (0-100)",[2]; [28],90
same,"Ryegrass, Italian plant response rating","[3]; 16 g ai/ha, 0 to 100 scale",40
same,"Ryegrass, Italian plant response rating (0-100)",[3]; [28],90
same,Kochia plant response rating,"kochia (Bassia scoparia) [4]; 16 g ai/ha, 0 to 100 scale",0
same,Kochia plant response rating (0-100),kochia (Bassia scoparia) [4]; [28],100
same,Corn plant response rating,"corn (Zea mays) [5]; 16 g ai/ha, 0 to 100 scale",80
same,Corn plant response rating (0-100),corn (Zea mays) [5]; [28],90
same,Blackgrass plant response rating,"[6]; 16 g ai/ha, 0 to 100 scale",50
same,Blackgrass plant response rating (0-100),[6]; [28],90
same,Barnyardgrass plant response rating,"[7]; 16 g ai/ha, 0 to 100 scale",0
same,Barnyardgrass plant response rating (0-100),[7]; [28],90
same,Wheat plant response rating,"[8]; 16 g ai/ha, 0 to 100 scale",90
same,Wheat plant response rating (0-100),[8]; [28],100
same,Soybean plant response rating,"soybean (Glycine max) [9]; 16 g ai/ha, 0 to 100 scale",0
same,Soybean plant response rating (0-100),soybean (Glycine max) [9]; [28],70
same,Ragweed plant response rating,"[10]; 16 g ai/ha, 0 to 100 scale",0
same,Ragweed plant response rating (0-100),[10]; [28],0
same,"Pigweed, Palmer plant response rating","[11]; 16 g ai/ha, 0 to 100 scale",10
same,"Pigweed, Palmer plant response rating (0-100)",[11]; [28],60
same,"Foxtail, Green plant response rating (0-100)",[12]; [29],90
same,"Foxtail, Green plant response rating (0 to 100 scale)",[12]; [30],80
same,"Oat, Wild plant response rating (0-100)",[13]; [29],90
same,"Oat, Wild plant response rating (0 to 100 scale)",[13]; [30],90
same,"Ryegrass, Italian plant response rating (0-100)",[14]; [29],90
same,"Ryegrass, Italian plant response rating (0 to 100 scale)",[14]; [30],80
same,Kochia plant response rating (0-100),kochia (Bassia scoparia) [15]; [29],90
same,Kochia plant response rating (0 to 100 scale),kochia (Bassia scoparia) [15]; [30],90
same,Corn plant response rating (0-100),corn (Zea mays) [16]; [29],100
same,Corn plant response rating (0 to 100 scale),corn (Zea mays) [16]; [30],100
same,Horseweed plant response rating (0-100),[17]; [29],10
same,Horseweed plant response rating (0 to 100 scale),[17]; [30],0
same,Blackgrass plant response rating (0-100),[18]; [29],90
same,Blackgrass plant response rating (0 to 100 scale),[18]; [30],90
same,Barnyardgrass plant response rating (0-100),[19]; [29],90
same,Barnyardgrass plant response rating (0 to 100 scale),[19]; [30],80
same,Wheat plant response rating (0-100),[20]; [29],90
same,Wheat plant response rating (0 to 100 scale),[20]; [30],90
same,Soybean plant response rating (0-100),soybean (Glycine max) [21]; [29],80
same,Soybean plant response rating (0 to 100 scale),soybean (Glycine max) [21]; [30],80
same,Ragweed plant response rating (0-100),[22]; [29],20
same,Ragweed plant response rating (0 to 100 scale),[22]; [30],10
same,Galium plant response rating (0-100),[23]; [29],90
same,Galium plant response rating (0 to 100 scale),[23]; [30],90
same,"Pigweed, Palmer plant response rating (0-100)",[24]; [29],60
same,"Pigweed, Palmer plant response rating (0 to 100 scale)",[24]; [30],10
same,"Plant response rating, Sedge, Umbrella (0 to 100 scale, 0 is no effect and 100 is complete control)",[25],100
same,"Plant response rating, Barnyardgrass (0 to 100 scale, 0 is no effect and 100 is complete control)",[26],95
same,"Plant response rating, Ducksalad (0 to 100 scale, 0 is no effect and 100 is complete control)",[27],80
same,"Plant response rating, Rice (0 to 100 scale, 0 is no effect and 100 is complete control)",rice (Oryza sativa),70
